Assay results taken from publication PMC8206213, “An L-2-hydroxyglutarate biosensor based on specific transcriptional regulator LhgR” (Nature Communications, 2021).
Several values for one entry are separate records, joined by “and”; a condition that tells them apart may be missing. Equal values may be shown once.

Columns and labels:
[1] = system: LhgR; experiment: EMSA, effect of compounds on LhgR binding to the lhgO promoter region F1; design: species or system Pseudomonas putida W619; settings: 50 mM compound, 10 nM F1, 60 nM LhgR
Protocol: Electrophoretic mobility shift assays (EMSAs) were carried out using the DNA fragment (F1 or F2) and purified LhgR. The DNA fragments were first amplified by primer pairs F1-F/F1-R and F2-F/F2-R, respectively. Then, either fragment at a concentration of 10 nM DNA was incubated with LhgR (0–160 nM) in 20 μL EMSA binding buffer (10 mM Tris-HCl [pH 7.4], 50 mM KCl, 0.5 mM EDTA, 10% [vol/vol] glycerol, and 1 mM dithiothreitol [DTT]). The binding reactions were carried out at 30 °C for 30 min. Electrophoresis was performed on 6% native polyacrylamide gels at 4 °C and 170 V (constant voltage) for about 45 min, followed by staining with SYBR green I (TaKaRa, China) and photographing. Analysis of the interaction between lhgO promoter region (F1) and LHGFR was performed using the same procedure.
To characterize the effector of LhgR, purified LhgR was first incubated with L-lysine, 5-aminovalerate, glutarate, L-2-HG, D-2-HG, 2-KG, or succinate at 30 °C for 15 min, followed by incubation with the added DNA fragments at 30 °C for 30 min. The mixtures were subsequently subjected to electrophoresis.

[2] = Dose-response of purified LHGFR for D-2-HG in buffer; type: binding
Protocol: Purified L-2-HG biosensors and different compounds were diluted by 50 mM Tris-HCl buffer (pH 7.4), mixed together in a black 96-well plate at a volume ratio of 3:1, and the fluorescence intensities were measured using an EnSight microplate reader (PerkinElmer, USA) with excitation at 430 nm, emission at 485 nm (mTFP) and 528 nm (Venus). The dose-response curves were fitted by OriginPro 2016 software (OriginLab) according to the following formula:1 R=Rmax+Rmin−Rmax/1+([L-2-HG]/Kd)^p where R, Rmin, and Rmax refer to the emission ratio of Venus to mTFP, ratio in the absence of L-2-HG, and ratio at saturation with L-2-HG, respectively. The [L-2-HG], Kd, and p refer to the L-2-HG concentration, apparent dissociation constant, and Hill slope, respectively. Emission spectra were recorded at 430 nm excitation, in steps of 2 nm. Excitation spectra were recorded using emission at 550 nm, excitation from 380 to 535 nm in steps of 2 nm.

[3] = system: LHGFR0N7C; experiment: Specificity of purified LHGFR0N7C, emission ratio with 240 μM compounds; type: binding, Pseudomonas putida W619; settings: 240 μM compound
[4] = system: LHGFR3N7C expressed in E. coli BL21(DE3); experiment: Control biosensor LHGFR3N7C expressed in E. coli, response to added compounds; type: cell-based; settings: Supplementary Fig. 14a
Protocol: To characterize the sensitivity and specificity of LHGFR expressed in E. coli BL21(DE3), 90 μL cell suspensions following 8 h carbon starvation were mixed with 10 μL increasing concentrations of L-2-HG or other compounds, and then added into a black 96-well plate (total 100 μL/per well), the fluorescence intensities were determined using an EnSight microplate reader (PerkinElmer, USA) and the following instrument settings: excitation at 430 nm, emission at 485 nm (mTFP) and 528 nm (Venus), time intervals of 5 min, the temperature at 37 °C, and shake at 180 rpm.

With O=C(O)CC[C@@H](O)C(=O)O [D-2-HG] as the molecule, how does the “Effect on LhgR binding to the lhgO promoter region F1” value [1] read?
The value was “observed only in the presence of L-2-HG”.

What about the “Emission ratio of 528/485” value ([2]; 2-HG concentration 0.01, Suppl. Fig. 9c) of the same molecule?
Its value is 1.387 and 1.378 and 1.399.

And the “Emission ratio of 528/485” value ([2]; 2-HG concentration 0.01, Suppl. Fig. 9d)?
Its value is 1.657 and 1.673 and 1.678.

And the “Emission ratio of 528/485” value ([2]; 2-HG concentration 0.1, Suppl. Fig. 9c)?
Its value is 1.372 and 1.375 and 1.382.

What about the “Emission ratio of 528/485” value ([2]; 2-HG concentration 0.1, Suppl. Fig. 9d) of the same molecule?
Its value is 1.659 and 1.671 and 1.687.

And the “Emission ratio of 528/485” value ([2]; 2-HG concentration 0.2, Suppl. Fig. 9c)?
The value was 1.374 and 1.387 and 1.391.

And the “Emission ratio of 528/485” value ([2]; 2-HG concentration 0.2, Suppl. Fig. 9d)?
Its value is 1.6456 and 1.673 and 1.682.

What about the “Emission ratio of 528/485” value ([2]; 2-HG concentration 1, Suppl. Fig. 9c) of the same molecule?
Its value is 1.374 and 1.373 and 1.392.

And the “Emission ratio of 528/485” value ([2]; 2-HG concentration 1, Suppl. Fig. 9d)?
Its value is 1.662 and 1.681 and 1.683.

What about the “Emission ratio of 528/485” value ([2]; 2-HG concentration 2, Suppl. Fig. 9c) of the same molecule?
Its value is 1.367 and 1.388 and 1.39.

What about the “Emission ratio of 528/485” value ([2]; 2-HG concentration 2, Suppl. Fig. 9d) of the same molecule?
Its value is 1.647 and 1.673 and 1.676.

What about the “Emission ratio of 528/485” value ([2]; 2-HG concentration 10, Suppl. Fig. 9c) of the same molecule?
The value was 1.374 and 1.398 and 1.395.

And the “Emission ratio of 528/485” value ([2]; 2-HG concentration 10, Suppl. Fig. 9d)?
The value was 1.662 and 1.69 and 1.707.

What about the “Emission ratio of 528/485” value ([2]; 2-HG concentration 20, Suppl. Fig. 9c) of the same molecule?
Its value is 1.362 and 1.378 and 1.389.

And the “Emission ratio of 528/485” value ([2]; 2-HG concentration 20, Suppl. Fig. 9d)?
The value was 1.665 and 1.705 and 1.723.

And the “Emission ratio of 528/485” value ([2]; 2-HG concentration 100, Suppl. Fig. 9c)?
Its value is 1.381 and 1.406 and 1.415.

What about the “Emission ratio of 528/485” value ([2]; 2-HG concentration 100, Suppl. Fig. 9d) of the same molecule?
The value was 1.815 and 1.829 and 1.846.

And the “Emission ratio of 528/485” value ([2]; 2-HG concentration 200, Suppl. Fig. 9c)?
Its value is 1.404 and 1.432 and 1.433.

What about the “Emission ratio of 528/485” value ([2]; 2-HG concentration 200, Suppl. Fig. 9d) of the same molecule?
Its value is 1.932 and 1.978 and 1.981.

And the “Emission ratio of 528/485” value ([2]; 2-HG concentration 1000, Suppl. Fig. 9c)?
The value was 1.525 and 1.561 and 1.565.

And the “Emission ratio of 528/485” value ([2]; 2-HG concentration 1000, Suppl. Fig. 9d)?
Its value is 2.255 and 2.2953 and 2.327.

And the “Emission ratio of 528/485” value ([2]; 2-HG concentration 2000, Suppl. Fig. 9c)?
Its value is 1.698 and 1.693 and 1.687.

And the “Emission ratio of 528/485” value ([2]; 2-HG concentration 2000, Suppl. Fig. 9d)?
The value was 2.559 and 2.546 and 2.55.

And the Emission ratio [3]?
The Emission ratio was 1.984 and 1.994 and 1.98.

What about the “normalized emission ratio of control biosensor expressed in E. coli” value (from here on “normalized emission ratio”) ([4]; time 0 min) of the same molecule?
Its value is 1.02 and 1.012 and 1.01 and 1.0239.

What about the “normalized emission ratio” value ([4]; time 5 min) of the same molecule?
The value was 1.007 and 1.013 and 1.012 and 1.022.

And the “normalized emission ratio” value ([4]; time 10 min)?
Its value is 1.011 and 1.012 (2×) and 1.02.

And the “normalized emission ratio” value ([4]; time 15 min)?
Its value is 1.008 and 1.007 and 1.013 and 1.022.

And the “normalized emission ratio” value ([4]; time 20 min)?
The value was 1.004 and 1.013 and 1.022 and 1.028.

And the “normalized emission ratio” value ([4]; time 25 min)?
Its value is 1.0101 and 1.011 and 1.02 and 1.024.

And the “normalized emission ratio” value ([4]; time 30 min)?
Its value is 1.007 and 1.022 and 1.016 and 1.027.

What about the “normalized emission ratio” value ([4]; time 35 min) of the same molecule?
Its value is 1.021 and 1.0176 and 1.025 and 1.027.

What about the “normalized emission ratio” value ([4]; time 40 min) of the same molecule?
The value was 1.019 (2×) and 1.013 and 1.028.

What about the “normalized emission ratio” value ([4]; time 45 min) of the same molecule?
Its value is 1.015 and 1.017 and 1.0244 and 1.023.

What about the “normalized emission ratio” value ([4]; time 50 min) of the same molecule?
Its value is 1.007 and 1.012 and 1.0275 and 1.019.

What about the “normalized emission ratio” value ([4]; time 55 min) of the same molecule?
Its value is 1.011 (2×) and 1.037 and 1.027.

And the “normalized emission ratio” value ([4]; time 60 min)?
The value was 1.016 and 1.014 and 1.0182 and 1.0226.

What about the “normalized emission ratio” value ([4]; time 65 min) of the same molecule?
The value was 1.014 and 1.022 and 1.029 and 1.023.

What about the “normalized emission ratio” value ([4]; time 70 min) of the same molecule?
Its value is 1.021 and 1.015 and 1.038 and 1.03.

And the “normalized emission ratio” value ([4]; time 75 min)?
The value was 1.0229 and 1.021 and 1.034 and 1.027.

What about the “normalized emission ratio” value ([4]; time 80 min) of the same molecule?
Its value is 1.027 and 1.023 and 1.038 (2×).

And the “normalized emission ratio” value ([4]; time 85 min)?
Its value is 1.021 and 1.027 and 1.032 and 1.0274.

What about the “normalized emission ratio” value ([4]; time 90 min) of the same molecule?
The value was 1.0277 and 1.033 and 1.04 and 1.032.
